Data taken from publication PMC3626541, “A first in human, safety, pharmacokinetics, and clinical activity phase I study of once weekly administration of the Hsp90 inhibitor ganetespib (STA-9090) in patients with solid malignancies” (BMC Cancer, 2013).

System: patients with advanced solid tumors
Assay: Safety: adverse events (NCI CTCAE v3.0), ECG
Assay type: in vivo, human
Method: Patients’ demographics and medical history were recorded at baseline. Physical examination and PS were assessed at baseline and on Day 1 of each cycle. Adverse events (AEs), vital signs, hematology and chemistry values, and creatinine clearance were assessed at baseline and weekly during treatment. Toxicity was graded using National Cancer Institute Common Terminology Criteria for Adverse Events (NCI CTCAE), version 3.0. An electrocardiogram (ECG) was performed at baseline, before and after treatment on Days 1 and 15 of Cycles 1 and 2, and on Day 15 of even-numbered cycles thereafter. CT scans were done at baseline and every 8 weeks thereafter. Tumor response was assessed using Response Evaluation Criteria in Solid Tumors (RECIST, v1.0), with confirmation of responses performed at least 4 weeks later.

SMILES: CC(C)c1cc(-c2n[nH]c(=O)n2-c2ccc3c(ccn3C)c2)c(O)cc1O [Ganetespib, 5-[2,4-dihydroxy-5-(1 methyl-ethyl)phenyl]-2,4 dihydro-4-(1-methyl-1H indol-5 yl)-3H-1,2,4 triazole-3-one]
- ALT elevation, CTCAE Grade 3 and 4 AE, Number (%) of patients (259 mg/m^2, n = 6): 0 n (%)
- AST elevated, AE of any grade, Number (%) of patients (259 mg/m^2, n = 6): 0 n (%)
- Abdominal distension, AE of any grade, Number (%) of patients (259 mg/m^2, n = 6): 0 n (%)
- Abdominal pain, AE of any grade, Number (%) of patients (259 mg/m^2, n = 6): 1 (16.7) n (%)
- Abdominal pain, serious adverse events, Number (%) of patients (259 mg/m^2, n = 6): 1 (16.7) n (%)
- Anemia, AE of any grade, Number (%) of patients (259 mg/m^2, n = 6): 0 n (%)
- Any event, AE of any grade, Number (%) of patients (259 mg/m^2, n = 6): 6 (100) n (%)
- Any event, CTCAE Grade 3 and 4 AE, Number (%) of patients (259 mg/m^2, n = 6): 5 (83.3) n (%)
- Any event, serious adverse events, Number (%) of patients (259 mg/m^2, n = 6): 3 (50) n (%)
- Arthralgia, CTCAE Grade 3 and 4 AE, Number (%) of patients (259 mg/m^2, n = 6): 1 (16.7) n (%)
- Asthenia, AE of any grade, Number (%) of patients (259 mg/m^2, n = 6): 2 (33.3) n (%)
- Asthenia, CTCAE Grade 3 and 4 AE, Number (%) of patients (259 mg/m^2, n = 6): 2 (33.3) n (%)
- Asthenia, serious adverse events, Number (%) of patients (259 mg/m^2, n = 6): 1 (16.7) n (%)
- Back pain, AE of any grade, Number (%) of patients (259 mg/m^2, n = 6): 2 (33.3) n (%)
- Constipation, AE of any grade, Number (%) of patients (259 mg/m^2, n = 6): 1 (16.7) n (%)
- Decreased appetite, AE of any grade, Number (%) of patients (259 mg/m^2, n = 6): 1 (16.7) n (%)
- Dehydration, AE of any grade, Number (%) of patients (259 mg/m^2, n = 6): 3 (50) n (%)
- Dehydration, CTCAE Grade 3 and 4 AE, Number (%) of patients (259 mg/m^2, n = 6): 1 (16.7) n (%)
- Dehydration, serious adverse events, Number (%) of patients (259 mg/m^2, n = 6): 1 (16.7) n (%)
- Diarrhea, AE of any grade, Number (%) of patients (259 mg/m^2, n = 6): 6 (100) n (%)
- Diarrhea, CTCAE Grade 3 and 4 AE, Number (%) of patients (259 mg/m^2, n = 6): 1 (16.7) n (%)
- Dizziness, AE of any grade, Number (%) of patients (259 mg/m^2, n = 6): 2 (33.3) n (%)
- Dry mouth, AE of any grade, Number (%) of patients (259 mg/m^2, n = 6): 1 (16.7) n (%)
- Dyspnea, AE of any grade, Number (%) of patients (259 mg/m^2, n = 6): 1 (16.7) n (%)
- Extremity pain, AE of any grade, Number (%) of patients (259 mg/m^2, n = 6): 1 (16.7) n (%)
- Fatigue, AE of any grade, Number (%) of patients (259 mg/m^2, n = 6): 5 (83.3) n (%)
- Fatigue, CTCAE Grade 3 and 4 AE, Number (%) of patients (259 mg/m^2, n = 6): 1 (16.7) n (%)
- Headache, AE of any grade, Number (%) of patients (259 mg/m^2, n = 6): 1 (16.7) n (%)
- Hyperbilirubinemia, CTCAE Grade 3 and 4 AE, Number (%) of patients (259 mg/m^2, n = 6): 0 n (%)
- Hypokalemia, AE of any grade, Number (%) of patients (259 mg/m^2, n = 6): 1 (16.7) n (%)
- Hypokalemia, CTCAE Grade 3 and 4 AE, Number (%) of patients (259 mg/m^2, n = 6): 0 n (%)
- Hyponatremia, CTCAE Grade 3 and 4 AE, Number (%) of patients (259 mg/m^2, n = 6): 0 n (%)
- Hypophosphatemia, AE of any grade, Number (%) of patients (259 mg/m^2, n = 6): 0 n (%)
- Hypophosphatemia, CTCAE Grade 3 and 4 AE, Number (%) of patients (259 mg/m^2, n = 6): 0 n (%)
- Insomnia, AE of any grade, Number (%) of patients (259 mg/m^2, n = 6): 2 (33.3) n (%)
- Musculoskeletal chest pain, AE of any grade, Number (%) of patients (259 mg/m^2, n = 6): 0 n (%)
- Nausea, AE of any grade, Number (%) of patients (259 mg/m^2, n = 6): 4 (66.7) n (%)
- Peripheral edema, AE of any grade, Number (%) of patients (259 mg/m^2, n = 6): 1 (16.7) n (%)
- Pneumonia, serious adverse events, Number (%) of patients (259 mg/m^2, n = 6): 1 (16.7) n (%)
- Rash, AE of any grade, Number (%) of patients (259 mg/m^2, n = 6): 1 (16.7) n (%)
- Serum amylase elevated, CTCAE Grade 3 and 4 AE, Number (%) of patients (259 mg/m^2, n = 6): 0 n (%)
- Spinal cord compression, CTCAE Grade 3 and 4 AE, Number (%) of patients (259 mg/m^2, n = 6): 0 n (%)
- Urinary tract infection, AE of any grade, Number (%) of patients (259 mg/m^2, n = 6): 3 (50) n (%)
- Vomiting, AE of any grade, Number (%) of patients (259 mg/m^2, n = 6): 3 (50) n (%)
- Weight decreased, AE of any grade, Number (%) of patients (259 mg/m^2, n = 6): 1 (16.7) n (%)
- ALT elevated, AE of any grade, Number (%) of patients (259 mg/m^2, n = 6, first of two ALT elevated lines): 0 n (%)
- ALT elevated, AE of any grade, Number (%) of patients (259 mg/m^2, n = 6, second of two ALT elevated lines): 0 n (%)
- Patients with Grade 1 atrio-ventricular block (259 mg/m^2, history of coronary artery disease, possibly related to study drug): One patient
- Incidence of diarrhea (259 mg/m^2 dose level): 100%
- Incidence of fatigue (259 mg/m^2 dose level): 83.3%
- ALT elevation, CTCAE Grade 3 and 4 AE, Number (%) of patients (7-114 mg/m^2, n = 25): 2 (8) n (%)
- AST elevated, AE of any grade, Number (%) of patients (7-114 mg/m^2, n = 25): 5 (20) n (%)
- Abdominal distension, AE of any grade, Number (%) of patients (7-114 mg/m^2, n = 25): 3 (12) n (%)
- Abdominal pain, AE of any grade, Number (%) of patients (7-114 mg/m^2, n = 25): 9 (36) n (%)
- Abdominal pain, serious adverse events, Number (%) of patients (7-114 mg/m^2, n = 25): 0 n (%)
- Anemia, AE of any grade, Number (%) of patients (7-114 mg/m^2, n = 25): 11 (44) n (%)
